EP4806899A1, “FUSED RING DERIVATIVE, PREPARATION METHOD THEREFOR AND USE THEREOF IN MEDICINE” (Shanghai Qilu Pharmaceutical Research and Development …, priority 2023, dated 2025)
pIC50: −log10 of the molar value.

Key:
human CYP11B2 enzyme = target: T1, human CYP11B2 enzyme (Homo sapiens, UniProt P19099); experiment: Enzyme inhibition activity assay in G402 cells stably expressing human CYP11B2 (aldosterone production from 11-DOC, LC/MS); format: cell-based; conditions: 1 µM 11-DOC, 16 hours, aldosterone detected
T1 construct: the ORF of human CYP11B1 or CYP11B2 were transfected into G402 cells; expressed in transfected cells
T1 sequence (P19099 25-503): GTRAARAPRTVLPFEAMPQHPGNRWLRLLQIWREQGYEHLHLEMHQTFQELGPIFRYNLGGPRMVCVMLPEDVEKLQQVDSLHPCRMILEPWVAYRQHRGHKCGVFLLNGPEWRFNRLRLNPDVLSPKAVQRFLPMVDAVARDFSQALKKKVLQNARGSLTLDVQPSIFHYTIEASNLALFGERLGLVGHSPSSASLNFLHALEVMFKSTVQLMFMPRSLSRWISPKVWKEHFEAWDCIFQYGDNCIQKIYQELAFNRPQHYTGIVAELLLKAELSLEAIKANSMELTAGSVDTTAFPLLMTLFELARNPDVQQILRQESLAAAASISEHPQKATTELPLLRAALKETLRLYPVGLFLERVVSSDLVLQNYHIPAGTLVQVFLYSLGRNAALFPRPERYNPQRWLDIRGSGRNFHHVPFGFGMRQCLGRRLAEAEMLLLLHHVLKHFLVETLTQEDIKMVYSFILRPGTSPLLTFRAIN
Text: (§1) G402 cells (ATCC, CRL 1440) are epithelioid cells isolated from the kidney of a patient with renal failure and are a type of leiomyoblastoma. For the screening of highly specific CYP11B2 inhibitors, we specifically used G402 cell lines stably expressing human CYP11B2 enzyme or human CYP11B1 enzyme for experimental development.
(§2) Construction of Stably Transfected Cell Lines: Expression plasmids containing suitable promoters, suitable drug resistance markers, and the ORF of human CYP11B1 or CYP11B2 were transfected into G402 cells using standard techniques. The cells were then screened using the specific puromycin resistance marker. Monoclonal cells stably expressing human CYP11B2 were selected for expansion, and 11-deoxycorticosterone (11-DOC) was used as the specific substrate to evaluate enzyme activity based on aldosterone production. Monoclonal cells stably expressing human CYP11B1 were selected for expansion, and 11-deoxycortisol (11-DC) was used as the specific substrate, with cortisol production as the detection target for specific enzyme activity evaluation. The G402 cell lines stably expressing CYP11B1/CYP11B2 were cultured at 37 °C, 5% CO2, 95% air in complete medium (McCoy's 5A + 10% FBS + 1% PS + 0.5 µg/mL puromycin).
(§3) Enzyme Inhibition Activity Assay: CYP11B1 G402/CYP11B2 G402 cells were spread out flatly in cell culture plates. After 24 hours, the medium was changed to an enzyme testing system (DMEM/F12 + 2.5% charcoal-stripped FCS). Small molecule inhibitors at various concentrations were added. After 1 hour, appropriate concentrations of specific substrates (1 µM 11-DOC / 1 µM 11-DC) were added and co-incubated with the cells for 16 hours. Cells were then collected, and specific products were detected using LC/MS methods with an AB SCIEX TRIPLE QUAD 5500+, CTO-40S instrument (CYP11B2 enzyme detecting aldosterone; CYP11B1 enzyme detecting cortisol).
(§4) The IC50 values of the compounds were determined based on the G402 testing system. The dose-dependent inhibition of enzyme activity was calculated by plotting the added inhibitor concentration (x-axis) against the percentage of product inhibitory activity relative to the control group (y-axis) based on product formation at various compound concentrations. The following data were then fitted using the least squares method with XLfit 5.5.0 for a four-parameter logistic curve fit: [formula] • Y-axis: Percentage of product inhibitory activity relative to the control group; • logIC50: IC50 was determined using XLFit.
(§5) The maximum enzyme activity corresponds to the amount of control product steroid/aldosterone in the absence of inhibitor, set as 100%. The minimum enzyme activity corresponds to the amount of reference control product steroid/aldosterone in the presence of inhibitor. Table 3 Inhibitory Activity of the Compounds of the Present Disclosure on CYP11B2 and CYP11B1

human CYP11B1 enzyme = target: T2, human CYP11B1 enzyme (Homo sapiens, UniProt P15538); experiment: Enzyme inhibition activity assay in G402 cells stably expressing human CYP11B1 (cortisol production from 11-DC, LC/MS); format: cell-based; conditions: 1 µM 11-DC, 16 hours, cortisol detected
T2 construct: the ORF of human CYP11B1 or CYP11B2 were transfected into G402 cells; expressed in transfected cells
T2 sequence (P15538 25-503): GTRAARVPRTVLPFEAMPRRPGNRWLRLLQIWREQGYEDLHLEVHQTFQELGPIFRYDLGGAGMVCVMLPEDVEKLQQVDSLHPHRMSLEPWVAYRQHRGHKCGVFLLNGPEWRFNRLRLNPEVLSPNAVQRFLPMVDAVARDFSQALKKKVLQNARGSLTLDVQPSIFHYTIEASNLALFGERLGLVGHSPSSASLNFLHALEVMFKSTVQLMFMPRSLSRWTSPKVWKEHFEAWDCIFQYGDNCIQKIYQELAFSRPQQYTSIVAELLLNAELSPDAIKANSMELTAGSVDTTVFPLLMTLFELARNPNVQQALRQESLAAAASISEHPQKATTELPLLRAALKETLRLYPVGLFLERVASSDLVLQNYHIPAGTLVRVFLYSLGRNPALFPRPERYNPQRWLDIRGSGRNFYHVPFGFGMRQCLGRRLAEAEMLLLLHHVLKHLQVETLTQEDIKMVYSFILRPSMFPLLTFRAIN
Text: as §1, §2, §3, §4, §5

C[C@H](F)C(=O)N[C@@H]1CCCc2c(-c3ccc4c(c3)CCC(=O)N4C)cncc21 [Compound D07-P2]
pIC50 (human CYP11B2 enzyme): 7.93 | pIC50 (human CYP11B1 enzyme): 5.79

CN(C)C(=O)N[C@@H]1CCCc2c(-c3ccc4c(c3)COC(=O)N4C)cncc21 [Compound A33]
pIC50 (human CYP11B2 enzyme): 8.01 | pIC50 (human CYP11B1 enzyme): 6.51

CCNC(=O)N[C@@H]1CCCc2c(-c3ccc4c(c3)CCC(=O)N4C)cncc21 [Compound D09]
pIC50 (human CYP11B2 enzyme): 7.55

CCC(=O)N[C@@H]1CCCc2c(-c3ccc4c(c3)CC(=O)N4C)cncc21 [Compound C24]
pIC50 (human CYP11B2 enzyme): 7.62

[2H]C([2H])([2H])NC(=O)N[C@@H]1CCOc2c(-c3ccc4c(c3)CCC(=O)N4C)cncc21 [Compound A11]
pIC50 (human CYP11B2 enzyme): 8.14 | pIC50 (human CYP11B1 enzyme): 5.90

[2H]C([2H])([2H])NC(=O)N[C@@H]1CCCc2c(-c3cc(F)c4c(ccc(=O)n4C)c3)cncc21 [Compound A22]
pIC50 (human CYP11B2 enzyme): 8.12 | pIC50 (human CYP11B1 enzyme): 5.92

CN(C)C(=O)N[C@@H]1CCOc2c(-c3ccc4c(c3)CCC(=O)N4C)cncc21 [Compound A12]
pIC50 (human CYP11B2 enzyme): 7.90 | pIC50 (human CYP11B1 enzyme): 5.51

[2H]C([2H])([2H])NC(=O)N[C@@H]1CCOc2c(-c3ccc4c(ccc(=O)n4C)c3)cncc21 [Compound A17]
pIC50 (human CYP11B2 enzyme): 7.64

CCC(=O)N[C@@H]1CCCc2c(-c3ccc4c(ccc(=O)n4C(F)F)c3)cncc21 [Compound C33]
pIC50 (human CYP11B2 enzyme): 7.49

CN1C(=O)CCc2cc(-c3cncc4c3CCC[C@H]4NC(=O)N3CCC3)ccc21 [Compound D17]
pIC50 (human CYP11B2 enzyme): 7.48

[2H]C([2H])([2H])NC(=O)N[C@@H]1CCCc2c(-c3ccc4c(c3)OCC(=O)N4C)cncc21 [Compound A25]
pIC50 (human CYP11B2 enzyme): 7.83 | pIC50 (human CYP11B1 enzyme): 5.67

COC(=O)N[C@@H]1CCCc2c(-c3cc(F)c4c(ccc(=O)n4C)c3)cncc21 [Compound A47]
pIC50 (human CYP11B2 enzyme): 8.16 | pIC50 (human CYP11B1 enzyme): 6.14

[2H]C([2H])([2H])NC(=O)N[C@@H]1CCOc2c(-c3ccc4c(c3)COC(=O)N4C)cncc21 [Compound A18]
pIC50 (human CYP11B2 enzyme): 8.12 | pIC50 (human CYP11B1 enzyme): 6.29

CNC(=O)N[C@@H]1CCCc2c(-c3ccc4c(c3)OCC(=O)N4C)cncc21 [Compound A24]
pIC50 (human CYP11B2 enzyme): 7.93 | pIC50 (human CYP11B1 enzyme): 5.81

CN(C)C(=O)N[C@@H]1CCCc2c(-c3ccc4c(c3)OCC(=O)N4C)cncc21 [Compound A26]
pIC50 (human CYP11B2 enzyme): 7.72

CNC(=O)N[C@@H]1CCCc2c(-c3ccc4c(c3)CCC(=O)N4C)cncc21 [Compound D01]
pIC50 (human CYP11B2 enzyme): 8.23

CCC(=O)N[C@@H]1CCCc2c(-c3ccc4c(ccc(=O)n4C)c3F)cncc21 [Compound C45]
pIC50 (human CYP11B2 enzyme): 7.48

CN1C(=O)CCc2cc(-c3cncc4c3CCC[C@H]4N3CCC4(CC4)C3=O)ccc21 [Compound D14]
pIC50 (human CYP11B2 enzyme): 7.89

COC(=O)N[C@@H]1CCOc2c(-c3ccc4c(c3)OCC(=O)N4C)cncc21 [Compound A44]
pIC50 (human CYP11B2 enzyme): 7.66

CCC(=O)NC1CCCc2c(-c3cnc4c(c3)CCCN4C(N)=O)cncc21 (stereo not drawn) [Compound C02]
pIC50 (human CYP11B2 enzyme): 7.77

[2H]C([2H])([2H])OC(=O)N[C@@H]1CCOc2c(-c3ccc4c(c3)OCC(=O)N4C)cncc21 [Compound A41]
pIC50 (human CYP11B2 enzyme): 7.54

CCC(=O)N[C@@H]1CCOc2c(-c3cc(Cl)c4c(c3)cc(C#N)n4C)cncc21 [Compound A56]
pIC50 (human CYP11B2 enzyme): 7.94

CN1C(=O)CCc2cc(-c3cncc4c3CCC[C@H]4N3CCCC3=O)ccc21 [Compound D03]
pIC50 (human CYP11B2 enzyme): 8.09

CCC(=O)N[C@@H]1COCc2c(-c3ccc4c(c3)CCC(=O)N4C)cncc21 [Compound A01]
pIC50 (human CYP11B2 enzyme): 7.38
